Results published in US11965039B2, “Compstatin analogues and their medical uses” (priority 2018, dated 2024).
Each block holds one compound with its values, some of them ahead of it. Starred links: 1 amine or outer side, 2 acyl side, 3 side chain; linkers in the order of their positions; H or OH if unused. Positions of bridges follow the written chain, without caps; N, C: chain ends. Non-standard residues stand in square brackets, D forms with d. Residues, ends and D or L forms follow the SMILES beside them. Groups on a side chain read outwards from the residue. *: point of attachment. Trp(1-Me) = Cn1cc(C[C@H](N)C(=O)O)c2ccccc21; C18 diacid = O=C(O)CCCCCCCCCCCCCCCCC(=O)*; C16 diacid = O=C(O)CCCCCCCCCCCCCCC(=O)*; γGlu = O=C(O)[C@H](CCC(=O)[*:2])N[*:1]; AEEA = NCCOCCOCC(=O)O; Sar = CNCC(=O)O

Key:
[1] = test system: classical complement pathway; assay: In vitro haemolysis assay (inhibition of classical complement pathway); assay type: cell-based, human; details: human serum, sensitized sheep red blood cells; Table 3, given as upper bounds; read-out: IC50, inhibition of hemolysis
Summary of the method: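 Compound dilutions preincubated 15 min at room temperature with diluted human serum (titrated per batch for 70-90% maximal haemolysis), then antibody-sensitized sheep RBC (10^7/well) added for 30 min at 37 °C in Tris/casein buffer, pH 7.4. Stopped with EDTA; haemolysis read at 405 nm; IC50 by 4PL fit.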

[2] = Solubility test at 10 mg/mL (visual inspection and light scattering); assay type: physicochemical; details: for Solubility, Condition 1: Acetate pH 4; for Solubility, Condition 2: Acetate pH 5; for Solubility, Condition 3: Phosphate pH 6; for Solubility, Condition 4: Phosphate pH 7; for Solubility, Condition 5: Phosphate pH 7.5
[3] = test system: alternative complement pathway; assay: Ex vivo alternative pathway complement activity (WIESLAB kit) after s.c. dosing in non-human primates; set-up: species or system Cynomolgus monkeys (Macaca fascicularis); details: NHP, subcutaneous 1840 nmol/kg, FIG. 1a-f
Protocol: FIG. 1(a-f): Normalized “ex vivo” activity of the alternative complement pathway over time after administration of a test compound at time 0 to one or two non-human primates. Compounds were given subcutaneously at a dose of 1840 nmol/kg. Complement activity (alternative pathway) was measured using the Wieslab kit. Activity was normalized using the predose (0) sample (set to 100%) and the negative control included in the kit. Normalized activity or average normalized activity for both animals and standard deviation is shown.
(§1) Healthy male Cynomolgus monkeys (Macaca fascicularis) received single subcutaneous administrations of each test substance. Compounds were formulated in 20 mM phosphate adjusted with NaOH to pH 7.5 and mannitol for isotonicity and dosed at 1840 nmol/kg. Blood was collected from a femoral vein from each animal at the following times: Pre-dose, 1, 2, 4, 8, 24, 48, 72, 96 and 120 h (10 sampling times). Blood was collected into serum separation tubes and allowed to clot at room temperature. The tubes were centrifuged and resulting serum was aliquoted and snap-frozen over dry-ice and stored at nominally −80° C. until analysis. All NHP studies were performed in accordance with animal welfare laws and regulations, including approval of the study by a local ethical review process.
Serum isolated from non-human primates at specific time points after dosing were analyzed for alternative pathway complement activity using the Complement system Alternative Pathway WIESLAB® kit from Svar Life Science (previously Euro diagnostic AB, Sweden) following the manufacturer's protocol. Briefly, serum samples or controls were diluted in buffer and incubated in microtitre strips coated with specific activators of the alternative pathway. The wells were washed and formed C5b-9 was detected using included colorimetric reagents. Absorbance at 405 nm was measured. The percent activity of the alternative complement pathway was calculated for each animal and timepoint relative to the pre-dose activity (0 hours) of the individual animal with subtraction of the negative control. […]

[4] = Pharmacokinetic half-life in non-human primates (serum, LC-MS/MS); assay type: in vivo, Cynomolgus monkeys (Macaca fascicularis); details: male, cynomolgus monkey, sc, NHP, single subcutaneous dose 1840 nmol/kg, * = approximate determination
Protocol: as §1
In order to assess pharmacokinetic half-life (t ½), serum samples isolated from non-human primates at specific time points after dosing were analysed for total drug compound after sample preparation by solid phase extraction (SPE) and liquid chromatography mass spectrometry (LC-MS/MS) using analogue internal standard. Single measurement of serum concentrations were used for calculation of the pharmacokinetic parameters using the non-compartmental approach in Phoenix WinNonlin 6.3. Plasma terminal elimination half-life (t½) was determined as In(2)/λz where λz is the magnitude of the slope of the log linear regression of the log concentration versus time profile during the terminal phase.

SMILES: CC[C@H](C)[C@@H]1NC(=O)[C@@H](NC(=O)[C@H](Cc2ccc(O)cc2)NC(=O)[C@H](C)NC(=O)[C@H](CO)NC(=O)CNC(=O)[C@H](CCC(=O)O)NC(C)=O)CSSC[C@@H](C(=O)N(C)CC(=O)N[C@@H](CCC(=O)O)C(N)=O)NC(=O)[C@H](CCCNC(=N)N)NC(=O)[C@H](Cc2c[nH]cn2)NC(=O)[C@H](CCC(=O)O)NC(=O)CNC(=O)[C@H](Cc2c[nH]c3ccccc23)NC(=O)[C@H](CC(=O)O)NC(=O)[C@H](CCC(N)=O)NC(=O)[C@H](Cc2cn(C)c3ccccc23)NC1=O [Compound 54] (Ac-EGSAYCI[Trp(1-Me)]QDWGEHRC[Sar]E-NH2; disulfide 6-16)
- IC50 [1]: < 100 nM
- Solubility, Condition 1 [2]: − (“−” denotes lack of solubility at the given condition, as UV absorbance at 340 nm exceeds 0.1 AU and/or it is visibly turbid or contains particles)
- Solubility, Condition 2 [2]: − (“−” denotes lack of solubility at the given condition, as UV absorbance at 340 nm exceeds 0.1 AU and/or it is visibly turbid or contains particles)
- Solubility, Condition 3 [2]: + (“+” denotes solubility at the given condition, as determined by UV absorbance being less than 0.1 AU at 340 nm and the sample being clear when manually inspected)
- Solubility, Condition 4 [2]: + (“+” denotes solubility at the given condition, as determined by UV absorbance being less than 0.1 AU at 340 nm and the sample being clear when manually inspected)
- Solubility, Condition 5 [2]: + (“+” denotes solubility at the given condition, as determined by UV absorbance being less than 0.1 AU at 340 nm and the sample being clear when manually inspected)
- duration of action (alternative pathway complement activity) [3]: relatively short duration of action

- half-life [4]: ~96.3 h
SMILES: CC[C@H](C)[C@@H]1NC(=O)[C@@H](NC(=O)[C@H](Cc2ccc(O)cc2)NC(=O)[C@H](C)NC(=O)[C@H](CO)NC(=O)CNC(=O)[C@H](CCC(=O)O)NC(C)=O)CSSC[C@@H](C(=O)N(C)CC(=O)N[C@@H](CCC(=O)O)C(=O)NCC(=O)N[C@@H](CCCCNC(=O)COCCOCCNC(=O)COCCOCCNC(=O)CC[C@H](NC(=O)CCCCCCCCCCCCCCC(=O)O)C(=O)O)C(N)=O)NC(=O)[C@H](CCCNC(=N)N)NC(=O)[C@H](Cc2c[nH]cn2)NC(=O)[C@H](CCC(=O)O)NC(=O)CNC(=O)[C@H](Cc2c[nH]c3ccccc23)NC(=O)[C@H](CC(=O)O)NC(=O)[C@H](CCC(N)=O)NC(=O)[C@H](Cc2cn(C)c3ccccc23)NC1=O [Compound 104] (Ac-EGSAYCI[Trp(1-Me)]QDWGEHRC[Sar]EGK([AEEA-AEEA-γGlu-C16 diacid])-NH2; disulfide 6-16)
- IC50 [1]: < 100 nM
- Solubility, Condition 1 [2]: − (“−” denotes lack of solubility at the given condition, as UV absorbance at 340 nm exceeds 0.1 AU and/or it is visibly turbid or contains particles)
- Solubility, Condition 2 [2]: + (“+” denotes solubility at the given condition, as determined by UV absorbance being less than 0.1 AU at 340 nm and the sample being clear when manually inspected)
- Solubility, Condition 3 [2]: + (“+” denotes solubility at the given condition, as determined by UV absorbance being less than 0.1 AU at 340 nm and the sample being clear when manually inspected)
- Solubility, Condition 4 [2]: + (“+” denotes solubility at the given condition, as determined by UV absorbance being less than 0.1 AU at 340 nm and the sample being clear when manually inspected)
- Solubility, Condition 5 [2]: + (“+” denotes solubility at the given condition, as determined by UV absorbance being less than 0.1 AU at 340 nm and the sample being clear when manually inspected)

- half-life [4]: ~157 h
SMILES: CC[C@H](C)[C@@H]1NC(=O)[C@@H](NC(=O)[C@H](Cc2ccc(O)cc2)NC(=O)[C@H](C)NC(=O)[C@H](CO)NC(=O)CNC(=O)[C@H](CCC(=O)O)NC(C)=O)CSSC[C@@H](C(=O)N(C)CC(=O)N[C@@H](CCC(=O)O)C(=O)N[C@@H](CCCCN)C(=O)N[C@@H](CCC(=O)N[C@@H](CCCCNC(=O)COCCOCCNC(=O)COCCOCCNC(=O)CC[C@H](NC(=O)CCCCCCCCCCCCCCCCC(=O)O)C(=O)O)C(N)=O)C(=O)O)NC(=O)[C@H](CCCNC(=N)N)NC(=O)[C@H](Cc2c[nH]cn2)NC(=O)[C@H](CCC(=O)O)NC(=O)CNC(=O)[C@H](Cc2c[nH]c3ccccc23)NC(=O)[C@H](CC(=O)O)NC(=O)[C@H](CCC(N)=O)NC(=O)[C@H](Cc2cn(C)c3ccccc23)NC1=O [Compound 111] (Ac-EGSAYCI[Trp(1-Me)]QDWGEHRC[Sar]EK[γGlu]K([AEEA-AEEA-γGlu-C18 diacid])-NH2; disulfide 6-16)
- IC50 [1]: < 100 nM
- Solubility, Condition 1 [2]: − (“−” denotes lack of solubility at the given condition, as UV absorbance at 340 nm exceeds 0.1 AU and/or it is visibly turbid or contains particles)
- Solubility, Condition 2 [2]: − (“−” denotes lack of solubility at the given condition, as UV absorbance at 340 nm exceeds 0.1 AU and/or it is visibly turbid or contains particles)
- Solubility, Condition 3 [2]: + (“+” denotes solubility at the given condition, as determined by UV absorbance being less than 0.1 AU at 340 nm and the sample being clear when manually inspected)
- Solubility, Condition 4 [2]: + (“+” denotes solubility at the given condition, as determined by UV absorbance being less than 0.1 AU at 340 nm and the sample being clear when manually inspected)
- Solubility, Condition 5 [2]: + (“+” denotes solubility at the given condition, as determined by UV absorbance being less than 0.1 AU at 340 nm and the sample being clear when manually inspected)

- half-life [4]: ~78.7 h
SMILES: CC[C@H](C)[C@@H]1NC(=O)[C@@H](NC(=O)[C@H](Cc2ccc(O)cc2)NC(=O)[C@H](CCC(=O)O)NC(=O)[C@H](CO)NC(C)=O)CSSC[C@@H](C(=O)N(C)CC(=O)N[C@@H](CCC(=O)O)C(=O)NCC(=O)N[C@@H](C)C(=O)N[C@@H](CCCCNC(=O)COCCOCCNC(=O)CC[C@H](NC(=O)COCCOCCNC(=O)CNC(=O)CC[C@H](NC(=O)CCCCCCCCCCCCCCCCC(=O)O)C(=O)O)C(=O)O)C(N)=O)NC(=O)[C@H](CCCNC(=N)N)NC(=O)[C@H](Cc2c[nH]cn2)NC(=O)[C@H](CCC(=O)O)NC(=O)CNC(=O)[C@H](Cc2c[nH]c3ccccc23)NC(=O)[C@H](CC(=O)O)NC(=O)[C@H](CCC(N)=O)NC(=O)[C@H](Cc2cn(C)c3ccccc23)NC1=O [Compound 118] (Ac-SEYCI[Trp(1-Me)]QDWGEHRC[Sar]EGAK([AEEA-γGlu-AEEA-Gly-γGlu-C18 diacid])-NH2; disulfide 4-14)
- IC50 [1]: < 100 nM
- Solubility, Condition 1 [2]: − (“−” denotes lack of solubility at the given condition, as UV absorbance at 340 nm exceeds 0.1 AU and/or it is visibly turbid or contains particles)
- Solubility, Condition 2 [2]: + (“+” denotes solubility at the given condition, as determined by UV absorbance being less than 0.1 AU at 340 nm and the sample being clear when manually inspected)
- Solubility, Condition 3 [2]: + (“+” denotes solubility at the given condition, as determined by UV absorbance being less than 0.1 AU at 340 nm and the sample being clear when manually inspected)
- Solubility, Condition 4 [2]: + (“+” denotes solubility at the given condition, as determined by UV absorbance being less than 0.1 AU at 340 nm and the sample being clear when manually inspected)
- Solubility, Condition 5 [2]: + (“+” denotes solubility at the given condition, as determined by UV absorbance being less than 0.1 AU at 340 nm and the sample being clear when manually inspected)

SMILES: CC[C@H](C)[C@H](NC(=O)[C@H](N)Cc1ccc(O)cc1)C(=O)N[C@H]1CSSC[C@@H](C(=O)N(C)[C@H](C(N)=O)[C@@H](C)CC)NC(=O)[C@H](CCCNC(=N)N)NC(=O)[C@H](Cc2c[nH]cn2)NC(=O)[C@H](C)NC(=O)CN(C)C(=O)[C@H](Cc2c[nH]c3ccccc23)NC(=O)[C@H](CC(=O)O)NC(=O)[C@H](CCC(N)=O)NC(=O)[C@H](Cc2cn(C)c3ccccc23)NC(=O)[C@H](C(C)C)NC1=O [Cp40, H-{d}YIC(1)V[1-Me-Trp]QDW[Sar]AHRC(1)[N-Me-Ile]-NH2, reference compound]
- IC50 [1]: < 100 nM
- duration of action (alternative pathway complement activity) [3]: relatively short duration of action
